Columns and labels:
[1] = test system: monoklonaler Antikörper MAK 160 (von Klon 160, ECACC 85 12 1701) gegen Testosteron; test: Cross-reaction with other steroids, competitive ELISA on plates coated with Testosteron-3-carboxymethyloxim-RSA; assay type: binding, Maus; settings: calculated from C = antigen concentration needed to reach 50 % of the maximum signal, relative to Testosteron
Method: (§1) Um die Anwesenheit und Spezifität von Antikörpern gegen Testosteron im Serum immunisierter Mäuse oder in dem Kulturüberstand der Hybridzellen oder in Ascites zu erkennen, wird ein ELISA-Verfahren als Testprinzip verwendet: Mikrotiterplatten werden mit 1 /ug Testosteron-3-carboxymethyloxim-RSA/ml Beschichtungspuffer (0,2 M Natriumcarbonat/-Bicarbonat, pH 9,3-9,5) bei 37° C eine Stunde lang beschichtet. Es wird 10 Minuten mit 0,9 % Natriumchloridlösung und 1 % Albuminlösung nachbehandelt. Anschließend wird mit 0,9 % Natriumchloridlösung gewaschen. Danach wird bei 37° C eine Stunde mit 100 /ul Probe inkubiert und erneut mit 0,9 % Natriumchloridlösung gewaschen. Um eine mögliche Kreuzreaktion mit anderen Steroiden zu prüfen, werden der Probelösung 100 µg - 1 /ug/ml des zu prüfenden Steroids zugesetzt. Eine Erniedrigung des Meßsignals in Gegenwart anderer Steroide bedeutet Kreuzreaktion. Es folgt eine weitere Inkubation (eine Stunde, 37° C) mit 450 mU/ml eines Schaf-Fabanti-- Maus-Fcγ-Peroxidase-Konjugats. Nach einem erneuten Waschschritt mit 0,9 % Natriumchlorid wird die Peroxidaseaktivität in üblicher Weise bestimmt (beispielsweise mit ABTS, 30 Minuten bei Raumtemperatur, abgelesen wird die Extinktionsdifferenz, Δ mE, bei 405 nm).
(§2) Der Test wird, wie in Beispiel 2 beschrieben, durchgeführt. […]

[2] = test system: monoklonaler Antikörper MAK 97 (von Klon 97, ECACC 85 12 1702) gegen Testosteron; test: as above; assay type: binding, Maus; settings: calculated from C = antigen concentration needed to reach 50 % of the maximum signal, relative to Testosteron
Method: as §1, §2

## C[C@]12CCC(=O)C[C@@H]1CC[C@@H]1[C@@H]2CC[C@]2(C)[C@@H](O)CC[C@@H]12 [5α-Dihydrotestosteron]
[1]
  Kreuzreaktion in % mit: 4%
[2]
  Kreuzreaktion in % mit: 5%
